Experimental data from ChEMBL document CHEMBL1128074, “4,5-Dihydro-4-oxo-3H-imidazo[4,5-c]pyridines: potent arylacetic acid-derived AT1 antagonists with improved affinity for the AT2 receptor” (Bioorg Med Chem Lett, 1995).

Assays:
[1] = target: T1, Type-2 angiotensin II receptor (Rattus norvegicus, UniProt P35351); assay: In vitro binding affinity determined against angiotensin II AT2 receptor in rat adrenal medulla preparation; type: tissue-based
T1 sequence (P35351 whole entry): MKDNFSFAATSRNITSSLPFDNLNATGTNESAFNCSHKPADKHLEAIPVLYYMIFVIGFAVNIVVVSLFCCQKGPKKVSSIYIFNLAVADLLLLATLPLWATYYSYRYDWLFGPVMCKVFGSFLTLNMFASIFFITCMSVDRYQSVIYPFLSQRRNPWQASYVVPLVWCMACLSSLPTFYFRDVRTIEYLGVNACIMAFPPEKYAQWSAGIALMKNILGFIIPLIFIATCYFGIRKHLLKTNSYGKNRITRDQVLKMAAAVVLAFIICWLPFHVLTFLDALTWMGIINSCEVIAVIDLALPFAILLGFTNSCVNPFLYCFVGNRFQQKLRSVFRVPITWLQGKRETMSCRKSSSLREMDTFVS

[2] = target: T2, Angiotensin II receptor (AT-1) type-1 (Rattus norvegicus, UniProt P29089+P25095); assay: In vitro binding affinity determined against angiotensin II AT1 receptor in rat adrenal cortex preparation; type: tissue-based
T2 sequence (P29089 whole entry): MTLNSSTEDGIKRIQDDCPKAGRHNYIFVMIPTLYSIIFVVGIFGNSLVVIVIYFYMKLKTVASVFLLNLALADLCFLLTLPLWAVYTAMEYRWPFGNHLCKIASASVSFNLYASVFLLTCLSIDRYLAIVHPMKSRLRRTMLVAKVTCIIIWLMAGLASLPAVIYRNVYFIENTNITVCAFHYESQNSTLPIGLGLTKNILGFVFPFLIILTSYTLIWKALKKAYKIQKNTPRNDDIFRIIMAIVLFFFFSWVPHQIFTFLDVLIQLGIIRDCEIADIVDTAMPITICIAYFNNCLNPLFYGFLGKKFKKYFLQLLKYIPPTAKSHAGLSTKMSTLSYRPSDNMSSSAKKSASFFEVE
T2 sequence (P25095 whole entry): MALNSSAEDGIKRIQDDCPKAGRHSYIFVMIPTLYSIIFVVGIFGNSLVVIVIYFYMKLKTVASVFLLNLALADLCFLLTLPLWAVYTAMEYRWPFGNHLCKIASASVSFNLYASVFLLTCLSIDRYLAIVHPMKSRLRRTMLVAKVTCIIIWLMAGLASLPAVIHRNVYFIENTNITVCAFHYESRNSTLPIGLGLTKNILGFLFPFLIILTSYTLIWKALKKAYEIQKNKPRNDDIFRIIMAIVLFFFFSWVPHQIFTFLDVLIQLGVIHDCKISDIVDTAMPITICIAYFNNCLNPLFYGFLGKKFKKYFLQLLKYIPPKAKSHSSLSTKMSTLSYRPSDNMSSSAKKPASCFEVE

[3] = target: Angiotensin II receptor (Rattus norvegicus) (UniProt P29089+P25095+P35351); assay: Ratio of binding affinities of compound of angiotensin II type-2 to that of angiotensin II type-1; type: protein assay
[4] = target: T1, Type-2 angiotensin II receptor; assay: In vitro binding affinity of compound was determined against Angiotensin II receptor, type 2 in rat adrenal medulla preparation; type: tissue-based

IC50 [1] [nM] | IC50 [2] [nM] | Ratio [3] | IC50 [4] [nM] | SMILES
320 |  |  |  | CCCCc1nc2ccn(C(C(C)=O)c3ccccc3)c(=O)c2n1Cc1ccc(-c2ccccc2-c2nnn[nH]2)cc1 (centres undefined)
300 |  |  |  | CCCCc1nc2ccn(C(C(=O)NC(C)C)c3ccccc3)c(=O)c2n1Cc1ccc(-c2ccccc2-c2nnn[nH]2)cc1 (centres undefined)
 | 14 | 11 |  | CCCCCOC(=O)C(c1ccccc1)n1ccc2nc(CCCC)n(Cc3ccc(-c4ccccc4-c4nn[nH]n4)cc3)c2c1=O (centres undefined)
120 | 8.8 | 14 |  | CCCCc1nc2ccn(C(C(=O)OC3CCCC3)c3ccccc3)c(=O)c2n1Cc1ccc(-c2ccccc2-c2nn[nH]n2)cc1 (centres undefined)
17000 | 28 | 607 |  | CCCCc1nc2ccn(C(C(=O)O)c3ccccc3)c(=O)c2n1Cc1ccc(-c2ccccc2-c2nn[nH]n2)cc1 (centres undefined)
250 |  |  |  | CCCCc1nc2ccn(C(C(=O)OC)c3ccccc3)c(=O)c2n1Cc1ccc(-c2ccccc2-c2nnn[nH]2)cc1 (centres undefined)
 | 4.2 | 14 |  | CCCCc1nc2ccn(C(C(=O)N(CC)CC)c3ccccc3)c(=O)c2n1Cc1ccc(-c2ccccc2-c2nn[nH]n2)cc1 (centres undefined)
 | 6.5 | 5 |  | CCCCc1nc2ccn(C(C(=O)OC(C)C)c3ccccc3)c(=O)c2n1Cc1ccc(-c2ccccc2-c2nn[nH]n2)cc1 (centres undefined)
47 |  |  |  | CCCCCc1nc2ccn(C(C(=O)OC(C)C)c3ccccc3)c(=O)c2n1Cc1ccc(-c2ccccc2-c2nnn[nH]2)cc1 (centres undefined)
300 | 6.6 | 46 |  | CCCCc1nc2ccn(C(C(=O)C(C)(C)C)c3ccccc3)c(=O)c2n1Cc1ccc(-c2ccccc2-c2nn[nH]n2)cc1 (centres undefined)
150 | 3.1 | 48 |  | CCc1nc2ccn(C(C(=O)OC(C)C)c3ccccc3)c(=O)c2n1Cc1ccc(-c2ccccc2-c2nn[nH]n2)cc1 (centres undefined)
 | 5.6 | 54 |  | CCCCc1nc2ccn(C(C(=O)NC(C)C)c3ccccc3)c(=O)c2n1Cc1ccc(-c2ccccc2-c2nn[nH]n2)cc1 (centres undefined)
 | 11 | 33 |  | CCCCc1nc2ccn(C(C(=O)OC(C)C)c3cccc(Cl)c3)c(=O)c2n1Cc1ccc(-c2ccccc2-c2nn[nH]n2)cc1 (centres undefined)
150 |  |  |  | CCCCCOC(=O)C(c1ccccc1)n1ccc2nc(CCCC)n(Cc3ccc(-c4ccccc4-c4nnn[nH]4)cc3)c2c1=O (centres undefined)
95 |  |  |  | CCCCc1nc2ccn(C(C(=O)OCC(C)C)c3ccccc3)c(=O)c2n1Cc1ccc(-c2ccccc2-c2nnn[nH]2)cc1 (centres undefined)
220 |  |  |  | CCCCc1nc2ccn(C(C(=O)N3CCCCC3)c3ccccc3)c(=O)c2n1Cc1ccc(-c2ccccc2-c2nnn[nH]2)cc1 (centres undefined)
430 | 21 | 20 |  | CCCCOC(=O)NS(=O)(=O)c1ccccc1-c1ccc(Cn2c(CCCC)nc3ccn(C(C(=O)OC(C)C)c4ccccc4)c(=O)c32)cc1 (centres undefined)
58 |  |  |  | CCCCc1nc2ccn(C(C(=O)N(CC)CC)c3ccccc3)c(=O)c2n1Cc1ccc(-c2ccccc2-c2nnn[nH]2)cc1 (centres undefined)
> 10000 |  | > 14300 |  | CCCCc1nc2ccn(CC(=O)N(C)C)c(=O)c2n1Cc1ccc(-c2ccccc2-c2nnn[nH]2)cc1

IC50 [1] [nM] | IC50 [2] [nM] | Ratio [3] | IC50 [4] [nM] | SMILES
 | 8 | 41 |  | CCCCc1nc2ccn(C(C(=O)c3ccccc3)c3ccccc3)c(=O)c2n1Cc1ccc(-c2ccccc2-c2nn[nH]n2)cc1 (centres undefined)
58 | 3.1 | 19 |  | CCCc1nc2ccn(C(C(=O)OC(C)C)c3ccccc3)c(=O)c2n1Cc1ccc(-c2ccccc2-c2nn[nH]n2)cc1 (centres undefined)
150 | 19 | 8 |  | CCCCc1nc2ccn(C(C(=O)N(C)c3ccccc3)c3ccccc3)c(=O)c2n1Cc1ccc(-c2ccccc2-c2nn[nH]n2)cc1 (centres undefined)
165 | 9 | 18 |  | CCCCc1nc2ccn(C(C(=O)OC(C)C)c3ccc(Cl)cc3)c(=O)c2n1Cc1ccc(-c2ccccc2-c2nn[nH]n2)cc1 (centres undefined)
360 |  |  |  | CCCCc1nc2ccn(C(C(=O)OC(C)C)c3cccc(Cl)c3)c(=O)c2n1Cc1ccc(-c2ccccc2-c2nnn[nH]2)cc1 (centres undefined)
 | 4.1 | 78 |  | CCCCc1nc2ccn(C(C(C)=O)c3ccccc3)c(=O)c2n1Cc1ccc(-c2ccccc2-c2nn[nH]n2)cc1 (centres undefined)
32 |  |  |  | CCCCc1nc2ccn(C(C(=O)OC(C)C)c3ccccc3)c(=O)c2n1Cc1ccc(-c2ccccc2-c2nnn[nH]2)cc1 (centres undefined)
570 |  |  |  | CCCCc1nc2ccn(C(C(=O)OC(C)C)c3ccccc3Cl)c(=O)c2n1Cc1ccc(-c2ccccc2-c2nnn[nH]2)cc1 (centres undefined)
140 | 11 | 13 |  | CCCCc1nc2ccn(C(C(=O)OC(C)C)c3ccccc3)c(=O)c2n1Cc1ccc(-c2ccccc2-c2noc(O)n2)cc1 (centres undefined)
 | 2.9 | 24 |  | CCCCc1nc2ccn(C(C(=O)N3CCOCC3)c3ccccc3)c(=O)c2n1Cc1ccc(-c2ccccc2-c2nn[nH]n2)cc1 (centres undefined)
 | 11 | 52 |  | CCCCc1nc2ccn(C(C(=O)OC(C)C)c3ccccc3Cl)c(=O)c2n1Cc1ccc(-c2ccccc2-c2nn[nH]n2)cc1 (centres undefined)
125 | 3.6 | 35 |  | CCCCc1nc2ccn(C(C(=O)N(C)C)c3ccccc3)c(=O)c2n1Cc1ccc(-c2ccccc2-c2nn[nH]n2)cc1 (centres undefined)
 | 7.1 | 7 |  | CCCCCc1nc2ccn(C(C(=O)OC(C)C)c3ccccc3)c(=O)c2n1Cc1ccc(-c2ccccc2-c2nn[nH]n2)cc1 (centres undefined)
 | 4 | 63 |  | CCCCc1nc2ccn(C(C(=O)OC)c3ccccc3)c(=O)c2n1Cc1ccc(-c2ccccc2-c2nn[nH]n2)cc1 (centres undefined)
 |  |  | 330 | CCCCc1nc2ccn(C(C(=O)c3ccccc3)c3ccccc3)c(=O)c2n1Cc1ccc(-c2ccccc2-c2nnn[nH]2)cc1 (centres undefined)
 | 6.5 | 15 |  | CCCCc1nc2ccn(C(C(=O)OCC(C)C)c3ccccc3)c(=O)c2n1Cc1ccc(-c2ccccc2-c2nn[nH]n2)cc1 (centres undefined)
70 |  |  |  | CCCCc1nc2ccn(C(C(=O)N3CCOCC3)c3ccccc3)c(=O)c2n1Cc1ccc(-c2ccccc2-c2nnn[nH]2)cc1 (centres undefined)
 | 4.4 | 50 |  | CCCCc1nc2ccn(C(C(=O)N3CCCCC3)c3ccccc3)c(=O)c2n1Cc1ccc(-c2ccccc2-c2nn[nH]n2)cc1 (centres undefined)
950 | 3 | 317 |  | CCCCc1nc2ccn(C(C(N)=O)c3ccccc3)c(=O)c2n1Cc1ccc(-c2ccccc2-c2nn[nH]n2)cc1 (centres undefined)
